Test results reported in ChEMBL document CHEMBL1667762, “Synthesis, antidepressant and antifungal evaluation of novel 2-chloro-8-methylquinoline amine derivatives” (Eur J Med Chem, 2011).
Values after ≈ are worked out from the molar mass of the structure shown. Active and inactive are the calls of the source. The rule behind the calls is not given here.

Legend:
Aspergillus flavus = experiment: Antifungal activity against Aspergillus flavus MTCC 277 after 72 hrs; type: functional; conditions: for MIC: Aspergillus flavus, MTCC 277, 72 h
Penicillium citrinum = experiment: Antifungal activity against Penicillium citrinum NCIM 768 after 72 hrs; type: functional
Rattus norvegicus [1] = experiment: Antidepressant activity in Albino rat assessed as immobility time at 100 mg/kg, ip by forced swimming test (reference value: 112.4 +/- 2.88 sec); type: functional; conditions: route intraperitoneal
Rattus norvegicus [2] = experiment: Neurotoxicity in rat assessed as impair in motor coordination at 100 mg/kg, ip after 30 mins by rotarod test (reference value: 116.50 +/- 1.18 sec); type: toxicity, organism-based; design: dose 100 mg/kg, route intraperitoneal; conditions: in vivo, 0.5 h
Rattus norvegicus [3] = organism: Rattus norvegicus; experiment: Inhibition of MAO in rat brain homogenate at 0.0005 M using kynuramine as substrate by fluorimetry; type: tissue-based
[4] = Antifungal activity against Monascus purpureus MTCC 369 after 72 hrs; type: functional
Aspergillus niger = experiment: Antifungal activity against Aspergillus niger MTCC 281 after 72 hrs; type: functional
Rattus norvegicus [5] = organism: Rattus norvegicus; experiment: Neurotoxicity in rat assessed as impair in motor coordination at after 30 mins by rotarod test (reference value: 116.50 +/- 1.18 sec); type: toxicity, organism-based; conditions: in vivo, 0.5 h
Rattus norvegicus [6] = experiment: Antidepressant activity in Albino rat assessed as immobility time at 20 mg/kg, ip by forced swimming test (reference value: 112.4 +/- 2.88 sec); type: functional; conditions: route intraperitoneal
Rattus norvegicus [7] = organism: Rattus norvegicus; conditions: Brain, 5 uM
Description: Inhibition of MAO in rat brain homogenate at 5 uM using kynuramine as substrate by fluorimetry

[8] = Penicillium citrinum, NCIM 768, 72 h
[9] = Aspergillus niger, MTCC 281, 72 h

Row | SMILES | inhibition zone (IZ) (Aspergillus flavus) | MIC (Aspergillus flavus) | inhibition zone (IZ) (Penicillium citrinum) | MIC (Penicillium citrinum; [8]) | Time (Rattus norvegicus [1]) | Time (Rattus norvegicus [2]) | inhibition (Rattus norvegicus [3]) | MIC [4] | inhibition zone (IZ) [4] | inhibition zone (IZ) (Aspergillus niger) | MIC (Aspergillus niger; [9]) | MIC (Aspergillus niger) | Time (Rattus norvegicus [5]) | Time (Rattus norvegicus [6]) | MIC (Penicillium citrinum) | inhibition (Rattus norvegicus [7])
1 | Cc1cccc2cc(CNc3ccc(F)cc3)c(Cl)nc12 | 6 mm | 12.5 µg/mL (≈ 41.6 µM) | 7 mm | 50 µg/mL (≈ 166 µM) | 80.4 s | 91.33 s | 19.6% | 50 µg/mL (≈ 166 µM) | 8 mm | 6 mm | 12.5 µg/mL (≈ 41.6 µM) | – | – | – | – | –
2 | Cc1cccc2cc(CNc3ccccc3)c(Cl)nc12 | 6.5 mm | 25 µg/mL (≈ 88.4 µM) | 6 mm | 100 µg/mL (≈ 354 µM) | 103.2 s | 100.33 s | – | 100 µg/mL (≈ 354 µM) | 7 mm | 6 mm | 25 µg/mL (≈ 88.4 µM) | – | – | – | – | –
3 | Cc1cccc2cc(CNc3ccccc3Cl)c(Cl)nc12 | 6 mm | 50 µg/mL (≈ 158 µM) | 6 mm | 100 µg/mL (≈ 315 µM) | – | – | – | 100 µg/mL (≈ 315 µM) | 6.5 mm | 5.5 mm | 50 µg/mL (≈ 158 µM) | – | – | – | – | –
4 | CCCCNCc1cc2cccc(C)c2nc1Cl | 5 mm | 200 µg/mL (≈ 761 µM) | 5 mm | 200 µg/mL (≈ 761 µM) | 97.2 s | 92.34 s | – | inactive | inactive | inactive | – | inactive | – | – | – | –
5 | COc1ccc(NCc2cc3cccc(C)c3nc2Cl)cc1 | 6.5 mm | 50 µg/mL (≈ 160 µM) | 6.5 mm | 100 µg/mL (≈ 320 µM) | – | – | – | 100 µg/mL (≈ 320 µM) | 5.5 mm | 6.5 mm | 50 µg/mL (≈ 160 µM) | – | – | – | – | –
6 | CN(C)CCCN1c2ccccc2CCc2ccc(Cl)cc21 [CLOMIPRAMINE] | – | – | – | – | – | – | – | – | – | – | – | – | 110.83 s | 63.4 s | – | –
7 | Cc1cccc2cc(CNc3ccc(Cl)c(Cl)c3)c(Cl)nc12 | 9 mm | 12.5 µg/mL (≈ 35.5 µM) | 6.5 mm | 25 µg/mL (≈ 71.1 µM) | 73.6 s | 90.83 s | 35% | 50 µg/mL (≈ 142 µM) | 8 mm | 8 mm | 12.5 µg/mL (≈ 35.5 µM) | – | – | – | – | –
8 | Cc1ccccc1NCc1cc2cccc(C)c2nc1Cl | 7 mm | 100 µg/mL (≈ 337 µM) | inactive | – | – | – | – | inactive | inactive | 6.5 mm | 100 µg/mL (≈ 337 µM) | – | – | – | inactive | –
9 | Cc1cccc2cc(CNc3cccc(Cl)c3)c(Cl)nc12 | 6 mm | 12.5 µg/mL (≈ 39.4 µM) | 5.5 mm | 25 µg/mL (≈ 78.8 µM) | 76.2 s | 97.83 s | 26.8% | 50 µg/mL (≈ 158 µM) | 6.5 mm | 5.5 mm | 12.5 µg/mL (≈ 39.4 µM) | – | – | – | – | –
10 | Cc1cccc2cc(CNc3ccc([N+](=O)[O-])cc3)c(Cl)nc12 | 6.5 mm | 100 µg/mL (≈ 305 µM) | inactive | – | 86.8 s | 93.5 s | – | inactive | inactive | 7 mm | 100 µg/mL (≈ 305 µM) | – | – | – | inactive | –
11 | OC(Cn1cncn1)(Cn1cncn1)c1ccc(F)cc1F [FLUCONAZOLE] | 14.5 mm | 6.25 µg/mL (≈ 20.4 µM) | 12 mm | 6.25 µg/mL (≈ 20.4 µM) | – | – | – | 6.25 µg/mL (≈ 20.4 µM) | 11 mm | 13.5 mm | 6.25 µg/mL (≈ 20.4 µM) | – | – | – | – | –
12 | N[C@@H]1C[C@H]1c1ccccc1.N[C@H]1C[C@@H]1c1ccccc1 | – | – | – | – | – | – | – | – | – | – | – | – | – | – | – | 91.6%
13 | Cc1ccc(NCc2cc3cccc(C)c3nc2Cl)cc1 | 7 mm | 50 µg/mL (≈ 168 µM) | 6 mm | 100 µg/mL (≈ 337 µM) | 96.6 s | 96.5 s | – | 100 µg/mL (≈ 337 µM) | 7.5 mm | 6 mm | 50 µg/mL (≈ 168 µM) | – | – | – | – | –
14 | Cc1cccc(NCc2cc3cccc(C)c3nc2Cl)c1 | 5.5 mm | 100 µg/mL (≈ 337 µM) | inactive | – | – | – | – | inactive | inactive | 6 mm | 100 µg/mL (≈ 337 µM) | – | – | – | inactive | –
15 | Cc1cccc2cc(CNc3ccc(Cl)cc3)c(Cl)nc12 | 6.5 mm | 12.5 µg/mL (≈ 39.4 µM) | 6 mm | 50 µg/mL (≈ 158 µM) | 77.2 s | 95.17 s | 23.5% | 50 µg/mL (≈ 158 µM) | 7 mm | 7.5 mm | 12.5 µg/mL (≈ 39.4 µM) | – | – | – | – | –
16 | Cc1cccc2cc(CNc3ccc(Br)cc3)c(Cl)nc12 | 6 mm | 25 µg/mL (≈ 69.1 µM) | 6.5 mm | 100 µg/mL (≈ 276 µM) | – | – | – | 100 µg/mL (≈ 276 µM) | 7 mm | 5.5 mm | 25 µg/mL (≈ 69.1 µM) | – | – | – | – | –
17 | CNCCC(Oc1ccc(C(F)(F)F)cc1)c1ccccc1 (stereo unspecified) [FLUOXETINE] | – | 6.25 µg/mL (≈ 20.2 µM) | 8 mm | 6.25 µg/mL (≈ 20.2 µM) | – | – | – | 6.25 µg/mL (≈ 20.2 µM) | 9 mm | 10.5 mm | 6.25 µg/mL (≈ 20.2 µM) | – | 107.2 s | 55.4 s | – | –
18 | Cc1cccc2cc(CNc3ccc(F)c(Cl)c3)c(Cl)nc12 | 8.5 mm | 12.5 µg/mL (≈ 37.3 µM) | 6 mm | 25 µg/mL (≈ 74.6 µM) | 74.2 s | 93.67 s | 32.1% | 25 µg/mL (≈ 74.6 µM) | 5.5 mm | 8.5 mm | 12.5 µg/mL (≈ 37.3 µM) | – | – | – | – | –
19 | Cc1cccc2cc(CNCc3ccccc3)c(Cl)nc12 | 6 mm | 12.5 µg/mL (≈ 42.1 µM) | 6.5 mm | 100 µg/mL (≈ 337 µM) | 78.4 s | 98.33 s | – | 100 µg/mL (≈ 337 µM) | 7 mm | 5.5 mm | 12.5 µg/mL (≈ 42.1 µM) | – | – | – | – | –
20 | Cc1cccc2cc(CNC3CCCCC3)c(Cl)nc12 | 5.5 mm | 200 µg/mL (≈ 692 µM) | 5.5 mm | 200 µg/mL (≈ 692 µM) | 76.6 s | 97.17 s | 20.6% | inactive | inactive | 5.5 mm | 200 µg/mL (≈ 692 µM) | – | – | – | – | –
